Experiment [1] concerns aA-crystallin-Y118D and aB-crystallin-R120G. The experiment in a line: Dissolving of accumulated crystal protein in cells carrying two crystallin mutant plasmids. The experiment is classed as cell-based. The following applies: 10 uM, compared with 1% DMSO solution. Here is the method: FIG. 13. Two mutant crystal proteins were introduced into cells. The accumulated crystal protein were treated by adding different agents.
Cyclopentanoperhy drophenanthrene compounds of the present invention refers to a compound containing cyclopentanoperhy drophenanthrene skeleton structure, including its derivatives. After the two crystal protein mutant plasmid aA-crystallin-Y118D and aB-crystallin-R120G were introduced into cells, we investigated the lanosterol and its derivatives as well as cholesterol (Cholesterol) for their effects on intracellular accumulation of crystal protein. Not all cyclopentanoperhy drophenanthrene compound have the same effect.

For experiment [2], the target named is T1, αB-crystallin R120G mutant (Homo sapiens, UniProt P02511, R120G).
T1 construct: made in house
T1 sequence (P02511 1-175 R120G): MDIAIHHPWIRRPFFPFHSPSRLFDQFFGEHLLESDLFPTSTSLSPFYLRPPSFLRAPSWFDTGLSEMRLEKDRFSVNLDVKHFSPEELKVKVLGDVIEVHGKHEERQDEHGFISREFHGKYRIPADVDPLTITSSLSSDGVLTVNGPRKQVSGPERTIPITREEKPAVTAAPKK
The experiment in a line: Negative-stain EM of aggregates treated with sterol in liposome. The format is biochemical. The following applies: negatively stained EM. As for the experimental part: Representative negatively stained EM pictures of the aggregates of αB-crystallin R120G mutant treated by liposome, lanosterol in liposome and cholesterol in liposome, respectively. The EM samples were stained by 1.25% uranyl acetate.
Quantitative analysis was performed by calculating the number of particles with length over 50 nm from six randomly picked viewing field. Each viewing field contained 30-50 particles.
The aggregates of the WT and mutated αA- and αB-crystallin proteins were obtained by heating the proteins solutions containing 1 M guanidine chloride (ultrapure, Sigma) with a concentration of 5 mg/ml at 60° C. for 48 h. The aggregates of the WT and mutated β- and γ-crystallins were prepared by heating the protein solutions at pH 3 and 37° C. for 48 h. The formation of aggregates was confirmed by turbidity (absorbance at 400 nm) and transmission electron microscope (EM) measurements. The preformed aggregates were resuspended in 20 mM PBS with a final concentration of 0.1 mg/ml (approximately 5 μM). The resuspended aggregates were treated by 50 μM lanosterol or cholesterol in liposomes formed by 50 μM DPPS at 37° C. […] The soluble proteins were determined by centrifuge the protein solutions to separate the supernatant and precipitation fractions. Then the protein concentration in the supernatant was determined by the Bradford method. […]

The subject of experiment [3] is aggregates of various WT and mutated crystallins. The experiment in a line: In vitro protein assay: dissociation of preformed crystallin aggregates (turbidity, soluble protein, EM). The format is biochemical. The settings on record: 37° C. Here is the method: Evaluation of the effect of lanosterol on the dissolution of crystallin aggregates by turbidity. Crystallin aggregates were formed by incubating 5mgml21 protein solution at 60° C. for 2 h (α-crystallins) or 37° C. for 48 h (β- and γ-crystallins) in the presence of 1M guanidine chloride. The preformed aggregates were re-suspended in PBS at a final protein concentration of 0.2 mg/ml and were treated with 500 μM sterols in 500 μM DPPC liposome and incubated at 37° C. for 24 h. Aggregates treated with 500 μM DPPC liposome only were used as the controls.
The α-crystallin aggregates were formed by incubating 5 mg/ml protein solutions at 60° C. for 48 h in the presence of 1 M guanidine chloride. The β- and γ-crystallin aggregates were prepared by incubating the protein solutions at 37° C. and pH 3 for 48 h. The preformed aggregates were re-suspended in PBS with a final protein concentration of 0.1 mg/ml. The re-suspended aggregates were treated by 50 μM sterols in 50 μM DPPS liposome and incubated at 37° C. for 144 h. The aggregates treated by 50 μM DPPS liposome were used as the controls. The supernatant and precipitation fractions were separated by centrifugation. The protein concentrations in the supernatant fraction were determined by absorbance at 280 nm and the percentages of the soluble proteins were calculated from three independent repetitions.
The recombinant his-tagged WT and mutated β- and γ-crystallin proteins were overexpressed in E. coli Rosetta and purified by Ni-NTA affinity column followed by gel filtration chromatography using the same protocol as those described elsewhere 13,14,16,18. The overexpression and purification of the non-tagged αA- and αB-crystallins were performed as described previously 19. The purity of the proteins were estimated to be above 95% as evaluated by one homogeneous band on 12.5% SDS-PAGE, 10% native-PAGE and a single peak in the size-exclusion chromatographyprofile. The protein concentration was determined according to the Bradford method by using BSA as the standard 20. All protein samples were prepared in 20 mM PBS buffer containing 150 mM NaCl, 1 mM EDTA and 1 mM DTT.
The aggregates of the WT and mutated αA- and αB-crystallin proteins were obtained by heating the proteins solutions containing 1 M guanidine chloride (ultrapure, Sigma) with a concentration of 5 mg/ml at 60° C. for 48 h. The aggregates of the WT and mutated β- and γ-crystallins were prepared by heating the protein solutions at pH 3 and 37° C. for 48 h. The formation of aggregates was confirmed by turbidity (absorbance at 400 nm) and transmission electron microscope (EM) measurements. The preformed aggregates were resuspended in 20 mM PBS with a final concentration of 0.1 mg/ml (approximately 5 μM). The resuspended aggregates were treated by 50 μM lanosterol or cholesterol in liposomes formed by 50 μM DPPS at 37° C. After 72 h treatment, the protein solutions were used for negative-stained EM observations. After 144 h incubation, the protein solutions were used for turbidity measurements and determinations of protein concentrations in the soluble fractions. The soluble proteins were determined by centrifuge the protein solutions to separate the supernatant and precipitation fractions. Then the protein concentration in the supernatant was determined by the Bradford method. The EM samples were prepared by depositing the protein solutions onto a freshly glow-discharged carbon coated copper grid. […]

The subject of experiment [4] is various cataract-causing crystallin mutants. The experiment in a line: Aggresome / intracellular aggregate formation of crystallin mutants in transfected cells (confocal microscopy). The settings on record: 0-40 μM sterols in 2% DMSO, 2 h treatment then 12 h culture; lanosterol effect dose-dependent. The format is cell-based. Here is the method: The effect of lanosterol or cholesterol on the aggresome formation of various crystallins was studied by transfecting the cells using plasmids containing various crystallin genes. The cells were cultivated for 24 h to enable efficient protein expression and aggresome formation. Then the cells were treated with 0-40 μM sterols in 2% DMSO. The cells treated with 2% DMSO were used as the control. After treatment for 2 h, the cells were moved to fresh DMEM medium containing 10% fetal bovine serum and further cultivated for 12 h. Then the cells were used for microscopy analysis.
The microscopy samples were prepared by washing the slips by phosphate buffered saline (PBS) three times. The cells were fixed with 4% paraformaldehyde for 40 min followed by three times washing with PBS. The cells were permeabilized with 0.1% Triton X-100 (Sigma) in PBS for 10 min and blocked with 5% normal goat serum in PBS for 1 h at 37° C. Immunostaining was carried out by adding mouse anti-Flag antibody (1:500) or anti-p62 antibody (1:200) in PBS buffer containing 5% normal goat serum and cultivated for 1 h at 37° C. Then the slips were washed three times with PBS, and further incubated with Alexa 649-conjugated goat anti-mouse IgG (1:250) for 1 h at ambient temperature. The nuclei were counterstained with Hoechst 33342. The mounted cells were analyzed using a Carl Zeiss LSM 710 confocal microscope.

Entries after “also recorded” stand apart in the source; their conditions may differ.

With `CC(C)CCC[C@@H](C)[C@H]1CC[C@H]2C3=CC[C@H]4C[C@@H](O)CC[C@]4(C)[C@H]3CC[C@]12C` [5α-cholest-7-en-3β-ol], the “dissolving of accumulated crystal protein” value (“dissolving” for short) in experiment [1] was “significant dissolving of the accumulated crystal protein”; in experiment [1] (listed as 5a-cholest-7-en-3β-ol), “significantly dissolve accumulated crystals protein”.

With `CC(C)CCC[C@@H](C)[C@H]1CC[C@H]2[C@@H]3CC=C4C[C@@H](O)CC[C@]4(C)[C@H]3CC[C@]12C` [Cholesterol, reference compound], the “dissolving” value in experiment [1] was “cannot effectively dissolve”. Moreover, the “dissociation of aggregates formed by αB-crystallin R120G mutant (number of particles with length over 50 nm)” value in experiment [2] was “not”. For the same molecule, in experiment [3] (500 μM sterols in 500 μM DPPC liposome, 24 h, 0.2 mg/ml protein), the “dissolution of crystallin aggregates by turbidity” value was “could not”. Moreover, the “dissociation of aggregates of various WT and mutated crystallins” value in experiment [3] (in vitro protein assay, 50 μM sterol in 50 μM DPPS liposome) is “could not and not”. In experiment [4], the “intracellular aggregation of various cataract-causing crystallin mutants” value is on record as “did not affect the formation of intracellular aggregates”.

On to `CC(C)=CCC[C@@H](C)[C@H]1CC[C@@]2(C)[C@@H]3CC[C@H]4C(C)(C)[C@@H](O)CC[C@]4(C)C3=CC[C@]12C` [Parkeol], for which the “dissolving” value in experiment [1] was “significant dissolving of the accumulated crystal protein”; in experiment [1] (listed as parkeol), “significantly dissolve accumulated crystals protein”.

Regarding `CC(C)=CCC[C@@H](C)[C@H]1CC[C@H]2C3=C(CC[C@]12C)[C@@]1(C)CC[C@H](O)C[C@@H]1CC3` [Zymosterol, 5α-Cholesta-8,24-dien-3β-ol], the “dissolving” value in experiment [1] is recorded as “significant dissolving of the accumulated crystal protein”; in experiment [1] (listed as zymosterol), “significantly dissolve accumulated crystals protein”.

With `CC(C)[C@@H](C)/C=C/[C@@H](C)[C@H]1CC[C@H]2C3=CC=C4C[C@@H](O)CC[C@]4(C)[C@H]3CC[C@]12C` [ergosterol], the “dissolving” value in experiment [1] was “significantly dissolve accumulated crystals protein; also recorded: significant dissolving of the accumulated crystal protein”.

With `CC(C)CCC[C@@H](C)[C@H]1CC[C@H]2[C@@H]3CC[C@H]4C[C@@H](O)CC[C@]4(C)[C@H]3CC[C@]12C` [β-cholestanol], the “dissolving” value in experiment [1] was “significantly dissolve accumulated crystals protein; also recorded: significant dissolving of the accumulated crystal protein”.

For the origin of these results see US20190117675A1, “Compositions And Methods To Treat And/Or Prevent Vision Disorders Of The Lens Of The Eye” (Helix Holding Company, priority 2014, published 2019).
